Measured values as given in patent US20260116868A1 (Arcus Biosciences, Inc., priority 2023, published 2026).

Target: T1, Cbl-b (Homo sapiens, UniProt Q13191)
T1 construct: biotin (biotinylated protein)
Experiment: Cbl-b probe displacement HTRF binding assay
Settings: 0.4 nM Cbl-b, 150 nM BODIPY probe
Protocol: The affinity with which compounds of the present disclosure bind to Cbl-b was assessed using probe displacement homologous time resolved fluorescence (HTRF) assays. The assays used a BODIPY™ conjugated probe (Example 54 from WO 2020264398) and biotinylated Cbl-b. The assays were performed in assay buffer consisting of 20 mM Hepes, 150 mM NaCl, 0.01% Triton X-100, 0.5 mM TCEP, 0.01% BSA. On the day of the assay, a 20 point, 1:2 master serial dilution of each compound was prepared in DMSO to span a final concentration range of […] to 0 nM. Two hundred nanoliters of diluted compound was added to each well of a 384-well plate. Fifteen microliters of biotinylated- Cbl-b resuspended in assay buffer were added to each well and the plate incubated for 60 minutes at room temperature prior to addition of 5 μL of BODIPY™ probe in assay buffer. Final assay conditions included 0.4 nM of Cbl-b and 150 nM of BODIPY™ probe. After a further 15 minutes of incubation at room temperature, 5 μl of Streptavidin-Terbium cryptate reagent at 5-fold final concentration was added to each well of the 384-well plate. Binding of a probe to Cbl-b results in an increase of HTRF signal. HTRF signal was measured by Envision plate reader, while competition of a compound of the present disclosure with probe results in a decrease of signal. Percentage maximum activity in each test well was calculated based on DMSO (maximum activity, 0% displacement) and no protein control wells (baseline activity, 100% displacement). Binding affinity was determined from a dose response curve fitted using a standard four parameter fit equation. See Table 7 for data for compounds (Cbl-b Binding (IC50)).

T1 sequence (Q13191 whole entry, species assumed): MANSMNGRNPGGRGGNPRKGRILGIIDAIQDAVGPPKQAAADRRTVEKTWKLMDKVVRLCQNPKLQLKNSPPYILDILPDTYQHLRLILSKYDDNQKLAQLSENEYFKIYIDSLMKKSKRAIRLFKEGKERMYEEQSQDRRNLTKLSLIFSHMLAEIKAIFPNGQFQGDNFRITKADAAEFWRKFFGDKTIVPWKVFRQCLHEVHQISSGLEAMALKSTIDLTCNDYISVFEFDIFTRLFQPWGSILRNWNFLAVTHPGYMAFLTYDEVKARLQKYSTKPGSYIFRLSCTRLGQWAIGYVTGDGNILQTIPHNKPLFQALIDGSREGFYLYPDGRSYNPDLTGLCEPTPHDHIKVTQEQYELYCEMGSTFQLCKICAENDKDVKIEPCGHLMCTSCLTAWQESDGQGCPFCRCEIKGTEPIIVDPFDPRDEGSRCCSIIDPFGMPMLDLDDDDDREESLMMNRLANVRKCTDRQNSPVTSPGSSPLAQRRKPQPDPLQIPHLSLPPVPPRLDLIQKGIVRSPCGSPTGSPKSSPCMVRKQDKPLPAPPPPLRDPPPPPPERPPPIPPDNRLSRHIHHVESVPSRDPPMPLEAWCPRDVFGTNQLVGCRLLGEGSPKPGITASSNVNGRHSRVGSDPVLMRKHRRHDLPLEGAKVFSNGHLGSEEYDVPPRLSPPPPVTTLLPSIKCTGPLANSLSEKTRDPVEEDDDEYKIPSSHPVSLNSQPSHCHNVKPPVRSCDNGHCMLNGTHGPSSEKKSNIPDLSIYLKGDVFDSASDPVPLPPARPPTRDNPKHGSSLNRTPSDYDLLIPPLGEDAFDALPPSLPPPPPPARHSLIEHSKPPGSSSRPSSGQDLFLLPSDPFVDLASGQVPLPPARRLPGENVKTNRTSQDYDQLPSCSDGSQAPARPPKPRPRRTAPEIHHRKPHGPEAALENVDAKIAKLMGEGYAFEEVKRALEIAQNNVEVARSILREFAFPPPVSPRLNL

Row | IC50 | SMILES
1 | < 100 nM | CCOc1cc(-c2ccc(OC(F)F)cc2C(=O)N2CC(F)C2)cc(NC(=O)c2cc(CNC[C@@H]3CCCO3)cn(C)c2=O)n1 [Example 282]
2 | < 100 nM | Cc1ccc(-c2cc(NC(=O)c3cc(CN[C@@H](C)C4CCC4)cn(C4CC4)c3=O)nc(OCC(F)F)c2)c(C(=O)N2CC(F)(F)C2)c1 [Example 347]
3 | < 100 nM | COc1ccc(-c2cc(NC(=O)c3cc(CN[C@@H](C)C4CCC4)cn(C4CC4)c3=O)nc(OC(C)C)c2)c(C(=O)N2CC(F)C2)c1 [Example 254]
4 | < 100 nM | CCn1cc(CNC[C@H](C)OC)cc(C(=O)Nc2cc(-c3ccc(C#N)cc3C(=O)N3CC(F)(F)C3)cc(C3CC3)n2)c1=O [Example 170]
5 | < 100 nM | C[C@H](NCc1cc(C(=O)Nc2cc(-c3ccc(C#N)cc3C(=O)N3CC(F)(F)C3)cc(C3CC3)n2)c(=O)n(C2CC2)c1)C1CC1 [Example 365]
6 | < 100 nM | CO[C@@H](C)CNCc1cc(C(=O)Nc2cc(-c3ccc(Cl)cc3C(=O)N3CC4(COC4)C3)cc(C3CC3)n2)c(=O)n(C2CC2)c1 [Example 160, N-(4-{4-Chloro-2-[(2-oxa-6-aza-6-spiro[3.3]heptyl)carbonyl]phenyl}-6-cyclopropyl-2-pyridyl)-1-cyclopropyl-5-{[(S)-2-methoxypropylamino]methyl}-2-oxo-1,2-dihydronicotinamide]
7 | < 100 nM | CC(C)CNCc1cc(C(=O)Nc2cc(-c3ccc(C(F)F)cc3C(=O)N3CC(F)C3)cc(OC(C)C)n2)c(=O)n(C2CC2)c1 [Example 310]
8 | < 100 nM | CC(C)[C@H](C)N[C@@H](C)c1cc(C(=O)Nc2cc(-c3ccc(C#N)cc3C(=O)N3CC(F)(F)C3)cc(C3CC3)n2)c(=O)n(C2CC2)c1 [Example 336]
9 | < 100 nM | CC(C)Nc1cc(-c2c(F)cc(Cl)cc2C(=O)N2CC(F)(F)C2)cc(NC(=O)c2cc(CN[C@@H](C)C3CCC3)cn(C3CC3)c2=O)n1 [Example 200]
10 | < 100 nM | CCOc1cc(-c2ccc(Cl)cc2C(=O)N2CC(F)(F)C2)cc(NC(=O)c2cc(CN[C@@H](C)C3CC3)cn(C3CC3)c2=O)n1 [Example 124]
11 | < 100 nM | CC(N[C@@H](C)C1CCC1)c1cc(C(=O)Nc2cc(-c3ccc(C#N)cc3C(=O)N3CC(F)(F)C3)cc(C3CC3)n2)c(=O)n(C2CC2)c1 (some centres unmarked) [Example 329]
12 | < 100 nM | Cc1ccc(-c2cc(NC(=O)c3cc(CNC[C@@H]4CCCO4)cn(C)c3=O)nc(OC(C)C)c2)c(C(=O)N2CC(F)C2)c1 [Example 320]
13 | < 100 nM | CO[C@@H](C)CNCc1cc(C(=O)Nc2cc(-c3ccc(Cl)cc3C(=O)N3CC(C(F)(F)F)C3)cc(C3CC3)n2)c(=O)n(C2CC2)c1 [Example 157, N-[4-(4-Chloro-2-{[3-(trifluoromethyl)-1-azetidinyl]carbonyl}phenyl)-6-cyclopropyl-2-pyridyl]-1-cyclopropyl-5-{[(S)-2-methoxypropylamino]methyl}-2-oxo-1,2-dihydronicotinamide]
14 | < 100 nM | N#Cc1ccc(-c2cc(NC(=O)c3cc(CNC[C@@H]4CCCO4)cn(C4CC4)c3=O)nc(C3CC3)c2)c(C(=O)N2CC(F)(F)C2)c1 [Example 352]
15 | < 100 nM | CC(C)Oc1cc(-c2ccc(OC(F)F)cc2C(=O)N2CC(F)(F)C2)cc(NC(=O)c2cc(CN[C@@H](C)C3CCC3)cn(C)c2=O)n1 [Example 112]
16 | < 100 nM | CO[C@@H](C)[C@H](C)NCc1cc(C(=O)Nc2cc(-c3c(F)cc(C#N)cc3C(=O)N3CC(F)(F)C3)cc(OC(C)C)n2)c(=O)n(C2CC2)c1 [Example 222]
17 | < 100 nM | COc1ccc(-c2cc(NC(=O)c3cc(CNC[C@@H]4CCCO4)cn(C4CC4)c3=O)nc(C3CC3)c2)c(C(=O)N2CC(F)(F)C2)c1 [Example 153, N-(6-Cyclopropyl-4-{2-[(3,3-difluoro-1-azetidinyl)carbonyl]-4-methoxyphenyl}-2-pyridyl)-1-cyclopropyl-2-oxo-5-[({[(S)-perhydro-2-furyl]methyl}amino)methyl]-1,2-dihydronicotinamide]
18 | < 100 nM | CCOc1cc(-c2ccc(Cl)cc2C(=O)N2CC(F)(F)C2)cc(NC(=O)c2cc(CN[C@@H](C)C3CCC3)cn(C3CC3)c2=O)n1 [Example 122, N-(4-{4-chloro-2-[(3,3-difluoro-1-azetidinyl)carbonyl]phenyl}-6-ethoxy-2-pyridyl)-5-{[(S)-1-cyclobutylethylamino]methyl}-1-cyclopropyl-2-oxo-1,2-dihydronicotinamide]
19 | < 100 nM | CO[C@@H](C)CNCc1cc(C(=O)Nc2cc(-c3ccc(Cl)cc3C(=O)N3CC(F)(F)C3)cc(C3CC3)n2)c(=O)n(C2CC2)c1 [Example 353]

Row | IC50 | SMILES
20 | < 100 nM | CC(C)Oc1cc(-c2ccc(C#N)cc2C(=O)N2CC(F)(F)C2)cc(NC(=O)c2cc(CNCC3(F)CCC3)cn(C3CC3)c2=O)n1 [Example 141]
21 | < 100 nM | CC(C)CNCc1cc(C(=O)Nc2cc(-c3ccc(OC(F)F)cc3C(=O)N3CC(F)(F)C3)cc(OC(C)C)n2)c(=O)n(C2CC2)c1 [Example 99, N-(4-{2-[(3,3-difluoro-1-azetidinyl)carbonyl]-4-difluoromethoxyphenyl}-6-isopropoxy-2-pyridyl)-1-cyclopropyl-5-[(isobutylamino)methyl]-2-oxo-1,2-dihydronicotinamide]
22 | < 100 nM | O=C(Nc1cc(-c2c(F)cc(Cl)cc2C(=O)N2CC(F)(F)C2)cc(C2CC2)n1)c1cc(CNC[C@@H]2CCCCO2)cn(C2CC2)c1=O [Example 146, N-(4-{4-chloro-2-[(3,3-difluoro-1-azetidinyl)carbonyl]-6-fluorophenyl}-6-cyclopropyl-2-pyridyl)-1-cyclopropyl-2-oxo-5-[({[(S)-tetrahydro-2H-pyran-2-yl]methyl}amino)methyl]-1,2-dihydronicotinamide]
23 | < 100 nM | Cc1ccc(-c2cc(NC(=O)c3cc(CNC[C@@H]4CCCO4)cn(C4CC4)c3=O)nc(OC(C)C)c2)c(C(=O)N2CC(F)C2)c1 [Example 309]
24 | < 100 nM | CO[C@@H](C)CNCc1cc(C(=O)Nc2cc(-c3ccc(C)cc3C(=O)N3CC(F)(F)C3)cc(C3CC3)n2)c(=O)n(C2CC2)c1 [Example 273]
25 | < 100 nM | Cc1ccc(-c2cc(NC(=O)c3cc(CNC[C@@H]4CCCO4)cn(C4CC4)c3=O)nc(C3CC3)c2)c(C(=O)N2CC(F)(F)C2)c1 [Example 304]
26 | < 100 nM | Cn1cc(CNC[C@@H]2CCCCO2)cc(C(=O)Nc2cc(-c3ccc(OC(F)F)cc3C(=O)N3CC(F)(F)C3)cc(C3CC3)n2)c1=O [Example 111, N-[6-cyclopropyl-4-[2-(3,3-difluoroazetidine-1-carbonyl)-4-(difluoromethoxy)phenyl]pyridin-2-yl]-1-methyl-5-[[[(2S)-oxan-2-yl]methylamino]methyl]-2-oxopyridine-3-carboxamide]
27 | < 100 nM | CCOc1cc(-c2ccc(OC(F)F)cc2C(=O)N2CC(F)(F)C2)cc(NC(=O)c2cc(CNC[C@H](C)OC)cn(C3CC3)c2=O)n1 [Example 331]
28 | < 100 nM | COCCNCc1cc(C(=O)Nc2cc(-c3ccc(C#N)cc3C(=O)N3CC(F)(F)C3)cc(C3CC3)n2)c(=O)n(C2CC2)c1 [Example 374]
29 | < 100 nM | CC(C)Oc1cc(-c2c(F)cc(C#N)cc2C(=O)N2CC(F)(F)C2)cc(NC(=O)c2cc(CN[C@@H](C)C3CCC3)cn(C)c2=O)n1 [Example 227]
30 | < 100 nM | COC(C)(C)CNCc1cc(C(=O)Nc2cc(-c3ccc(C#N)cc3C(=O)N3CC(F)(F)C3)cc(C3CC3)n2)c(=O)n(C2CC2)c1 [Example 401]
31 | < 100 nM | Cn1cc(CNC[C@@H]2CCCCO2)cc(C(=O)Nc2cc(-c3ccc(Cl)cc3C(=O)N3CC(F)(F)C3)cc(C3CC3)n2)c1=O [Example 108, N-[4-[4-chloro-2-(3,3-difluoroazetidine-1-carbonyl)phenyl]-6-cyclopropylpyridin-2-yl]-1-methyl-5-[[[(2S)-oxan-2-yl]methylamino]methyl]-2-oxopyridine-3-carboxamide]
32 | < 100 nM | COc1ccc(-c2cc(NC(=O)c3cc(CNC[C@H](C)OC)cn(C4CC4)c3=O)nc(C3CC3)c2)c(C(=O)N2CC(F)C2)c1 [Example 270]
33 | < 100 nM | CO[C@H]1CCC[C@@H]1NCc1cc(C(=O)Nc2cc(-c3ccc(C#N)cc3C(=O)N3CC(F)(F)C3)cc(C3CC3)n2)c(=O)n(C2CC2)c1 [Example 363]
34 | < 100 nM | COc1ccc(-c2cc(NC(=O)c3cc(CNCC(C)C)cn(C4CC4)c3=O)nc(C3CC3)c2)c(C(=O)N2CC(F)C2)c1 [Example 284]
35 | < 100 nM | COc1ccc(-c2cc(NC(=O)c3cc(CN[C@@H](C)[C@H](C)OC)cn(C)c3=O)nc(C3CC3)c2)c(C(=O)N2CC(F)C2)c1 [Example 313]
36 | < 100 nM | CC(C)(F)CNCc1cc(C(=O)Nc2cc(-c3ccc(C#N)cc3C(=O)N3CC(F)(F)C3)cc(C3CC3)n2)c(=O)n(C2CC2)c1 [Example 244]
37 | < 100 nM | CCOc1cc(-c2ccc(Cl)cc2C(=O)N2CC(F)(F)C2)cc(NC(=O)c2cc(CNC[C@H](C)OC)cn(C)c2=O)n1 [Example 180]
38 | < 100 nM | CC(C)CNCc1cc(C(=O)Nc2cc(-c3ccc(C#N)cc3C(=O)N3CC(F)(F)C3)cc(OCC(F)F)n2)c(=O)n(C2CC2)c1 [Example 129, N-(4-{4-cyano-2-[(3,3-difluoro-1-azetidinyl)carbonyl]phenyl}-6-(2,2-difluoroethoxy)-2-pyridyl)-1-cyclopropyl-5-[(isobutylamino)methyl]-2-oxo-1,2-dihydronicotinamide]
